BigSolDB 2.1

NC(=O)N/N=C/c1ccc([N+](=O)[O-])o1
solubility (mole fraction)
Settings	278.15 K	283.15 K	288.15 K	293.15 K	298.15 K	303.15 K	308.15 K	313.15 K	318.15 K	323.15 K
in DMSO	–	–	–	0.0448	0.0469	0.0493	0.053	0.0577	0.0636	0.0709
in NMP	0.0317	0.0354	0.0396	0.0457	0.0522	0.0591	0.0662	0.075	0.0853	0.0985
in ethanol	6.72e-05	8.38e-05	0.000102	0.000123	0.000149	0.000178	0.000213	0.000258	0.000303	0.000364
in isopropanol	6.89e-05	8.99e-05	0.000117	0.000138	0.000175	0.000223	0.00027	0.000331	0.00039	0.000484
in water	1.32e-05	1.66e-05	1.96e-05	2.46e-05	2.98e-05	3.66e-05	4.5e-05	5.75e-05	6.84e-05	8.47e-05
